Source: paper PMC6321145 (Molecules, 2018)

Columns and labels:
[1] = biological target: T1, Aβ1–42 fibrils (Homo sapiens, UniProt P05067); test: Disaggregation of self-induced Aβ1–42 aggregation fibrils (ThT binding assay); type: biochemical; details: compound 20 μM, fibrils formed 24 h, then 24 h with compound, 37 °C
T1 construct: Aβ1–42 (Sigma, St. Louis, MO, USA; counterion, NaOH) stock solution was prepared by dissolving Aβ1–42 peptide in ammonium hydroxide; purchased Sigma
Protocol: (§1) The ability of compound 6b1 to disaggregate self-induced Aβ1–42 aggregation fibrils was also investigated. Aβ1–42 fibrils were prepared by incubating fresh Aβ1–42 for 24 h at 37 °C, and the test compound was added to the sample and incubated for another 24 h at 37 °C. Then the sample was analyzed by ThT binding assay and TEM assay.

[2] = Metal chelation by UV-vis spectrometry; type: physicochemical
Protocol: The chelation ability of compound 6b1 toward biometals such as Na^+, K^+, Cu^2+, Fe^2+, Mg^2+, Ca^2+, and Zn^2+ was studied by UV-vis spectrometry. […] Its ability to selectively chelate Cu^2+ versus other relevant metal ions was further investigated by UV-vis spectrometry. Solution of compound 6b1 was prepared and treated with the metal ion (Zn^2+, Fe^2+, Ca^2+, Mg^2+, Na^+ and K^+), after 10 min incubation, the optical response was observed, followed by addition of Cu^2+ and consequent analysis of further spectral changes.
In order to further determine the stoichiometry of compound 6b1 for Cu^2+ binding, the UV spectra was performed by titrations of compound 6b1 upon stepwise additions of a Cu^2+ solution.
The metal chelation of compound 6b1 was tested in ethanol using a UV-vis spectrophotometer (Shimadzu UV-2450PC) with wavelength ranging from 200 to 700 nm. The absorption spectra of compound 6b1 (10 μM, final concentration) alone or in the presence of metal ions (20 μM, final concentration) after incubation for 30 min at room temperature, was recorded at room temperature in a 1 cm quartz cell. Each sample was repeated for at least three times.
Experiments for the determination of metal ion binding selectivity were carried as follows. 20.0 mM stock solutions of CuSO4, ZnSO4, FeSO4, CaCl2, MgCl2, NaCl and KCl in MQ water were prepared and then diluted to 1.0 mM using ethanol. […] 10 μL solutions of the compounds treated with 10 μL of ZnSO4, FeSO4, CaCl2, MgCl2, NaCl and KCl. Spectra were recorded after 10 min incubation at 25 °C. The metal binding selectivity was assessed by then adding 10 μL of CuSO4 solution and incubating for 10 additional min at 25 °C. Selectivity was quantified by comparing and normalizing the absorbance values of the maximum in each case with the absorbance of the solution at the same wavelength after addition of CuSO4.
For binding stoichiometry assay, A fixed amount of compound 6b1 (20 μM) was mixed with growing amounts of copper ion (0–20 μM) and tested the difference UV-vis spectra to investigate the ratio of ligand/metal in the complex.

[3] = biological target: T1, Aβ1–42 fibrils; test: TEM assay of Aβ1–42 fibrils; type: biochemical; details: compound 20 μM
Protocol: To further complement the ThT binding assay, A transmission electron microscopy (TEM) assay was employed to monitor and clarify the effect of compound 6b1 on Aβ1−42 aggregation.
as §1
Aβ1–42 peptide (Sigma) was dissolved in 20 mM phosphate buffer (pH 7.4) at 4 °C to 100 μM before use.
Aβ1–42 was incubated at 37 °C for 24 h. Then, 40 μM tested compound was added and incubated at 37 °C for another 24 h. The final concentrations of Aβ1–42 and the compounds were 50 μM and 20 μM, respectively. After incubation, aliquots (5 μL) of the samples were placed on a carbon-coated copper/rhodium grid for 2 min at room temperature. Each grid was stained with uranyl acetate (1%, 5 μL) for 2 min. Excess staining solution was removed and the specimen was transferred for imaging with transmission electron microscopy (JEOL JEM-1400, Tokyo, Japan).

[4] = Oxygen radical absorbance capacity with fluorescein (ORAC-FL) assay; details: compound 1 μM
Protocol: Oxidative stress is another crucial event in AD pathogenesis. In order to determine antioxidant activities of our synthetic compounds, the oxygen radical absorbance capacity method with fluorescein (ORAC-FL) assay was performed. with Trolox (6-hydroxy-2,5,7,8-tetramethylchroman-2-carboxylic acid) as the standard, and their antioxidant activity was expressed as Trolox equivalents.
The antioxidant activities of the compounds in vitro were determined by the oxygen radical absorbance capacity fluorescein (ORAC-FL) assay. The tested compounds and (±)-6-hydroxy-2,5,7,8-tetramethylchroman-2-carboxylic acid (Trolox) were dissolved in DMSO at a concentration of 10 mM, and then diluted with 75 mM potassium phosphate buffer (pH 7.4) to 50 μM and 10 μM for use. The fluorescein (FL) stock solution (3.4 mM) was diluted with the same buffer to 136 nM. All the assays were conducted with 75 mM potassium phosphate bufffer (pH 7.4), and the final reaction mixture was 200 μL.
The mixture of compounds (or buffer) (20 μL) and fluorescein (FL, 120 μL) were incubated for 15 min at 37 °C in a black 96-well plate. Then 2,2′-azobis-(amidino-propane)-dihydrochloride (AAPH) solution (60 μL, 40 mM) was rapidly added to the reaction mixture. The fluorescence was recorded every 5 min for 240 min at 485 nm (excitation wavelength) and 535 nm (emission wavelength) (Varioskan Flash Multimode Reader, Thermo Scientific, Waltham, MA, USA), and each sample was prepared and measured for three times independently. […] The net AUC for a sample was calculated using the expression net AUC = AUCsample − AUCblank, The ORAC-FL value of each sample was calculated using the equation of net AUCsample/(AUCTrolox – AUCblank), which was expressed as Trolox equivalents.

[5] = tested on: SH-SY5Y cells; test: Cellular ROS detection (DCFH-DA) in SH-SY5Y cells treated with t-BuOOH; type: cell-based, human; details: compound 2.5 μM; 0.1 mM t-BuOOH; compared with Trolox
Protocol: To further investigate their antioxidant activity in SH-SY5Y cells, cellular ROS detection assay based on dichlorofluorescein diacetate (DCFH-DA) was performed. with Trolox and N-acetyl-L-cysteine (NAC) as reference compounds.
SH-SY5Y cells were maintained in Dulbecco’s modified Eagle’s medium (DEME) and supplemented with 1 mM glutamine, 10% fetal calf serum, 100 U/mL penicillin, and 100 μg/mL streptomycin. The cultures were maintained at 37 °C in a humidified incubator containing 5% CO2 and were passaged twice weekly.
The antioxidant activity of the compounds in SH-SY5Y cells were tested with the fluorescent probe (2′,7′-dichlorofluorescein diacetate, DCFH-DA) as reported with some variation. SH-SY5Y cells were sub-cultured in 96-well plates at a seeding density of 1 × 10^4 cells per well for 24 h, then the medium was removed, the tested compounds (2.5 μM) was added and incubated for another 24 h at 37 °C. After that, the cells were washed with PBS and incubated with 5 μM DCFH-DA in PBS at 37 °C in 5% CO2 for 30 min. Then DCFH-DA was removed, the cells were washed three times and incubated with 0.1 mM t-BuOOH in PBS for 30 min. After the incubation, the cell fluorescence from each well was measured at 485 nm excitation and 535 nm emission with a monochromator based multimode microplate reader ([…] M1000).

[6] = compound 10 μM, metal ions 20 μM, ethanol

T1 sequence (P05067 672-713): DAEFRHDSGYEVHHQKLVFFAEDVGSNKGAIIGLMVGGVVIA

CCN(CC)c1ccc(/C=C/c2cc(NCCCN(C)C)c3ccccc3n2)cc1 [Compound 6b1, (E)-N^1-(2-(4-(Diethylamino)styryl)quinolin-4-yl)-N^3,N^3-dimethylpropane-1,3-diamine]
Disaggregation ratio of self-induced Aβ1–42 fibrils [1]: 64.3%
Binding to Na^+, K^+, Mg^2+, Ca^2+ (UV-vis) [2, 6]: may not bind to these metal ions
Interaction with Cu^2+, Fe^2+, Zn^2+ (UV-vis) [2, 6]: form the complex
Selectivity of metal chelation for Cu^2+ versus other metal ions ([2]; versus Zn^2+, Fe^2+, Ca^2+, Mg^2+, Na^+, K^+): good selectivity of metal chelation for Cu^2+
TEM: Aβ1–42 fibril formation in presence of compound ([3]; 37 °C, 24 h): only fewer thin fibrils and small bulk aggregates
TEM: disaggregation of Aβ1–42 fibrils ([3]; preformed fibrils, 24 h at 37 °C): could disaggregate more Aβ1–42 fibrils than resveratrol
ORAC [4]: 6.23 ± 0.05 μmol of Trolox equivalents/μmol of tested compounds
Antioxidant activity in SH-SY5Y cells (ROS generation, DCFH-DA fluorescence) [5]: more antioxidant activity than Trolox
